Measured values published in patent US11672803B2, “Use of inhibitors of Brutons tyrosine kinase (Btk)” (priority 2010, dated 2023).

Tests used:
[1] = tested on: individuals with mantle cell lymphoma; test: Absolute lymphocyte count vs cycle day in individuals with mantle cell lymphoma; type: in vivo, human
Description: Patients 32006, 38003, and 38004 were treated on schedule of 4 weeks on treatment followed by one week off. Thus, day 1 of each cycle follows one week off drug for these patients. The other patients were treated with continuous daily dosing.

individuals with DLBCL = test: Absolute lymphocyte count vs cycle day in individuals with DLBCL; type: in vivo, human; conditions: PD individuals, FIG. 11
Description: Patient 38011 was treated on schedule of 4 weeks on treatment followed by one week off. Thus, day 1 of each cycle follows one week off drug for this patient. Patients 38008 and 324001 were treated with continuous daily doses.
All Patients were treated on schedule of 4 weeks on treatment followed by one week off. Thus, day 1 of each cycle follows one week off drug for these patients. […] Patient 32002 received only one cycle of treatment.

DoHH2 cells = test: Alamar blue assay in DoHH2 cells; type: cell-based; conditions: DLBCL cell line from a transformed follicular lymphoma patient
From the text: DOHH2 is a DLBCL (diffuse large B-cell lymphoma) cell line, from a transformed follicular lymphoma patient.
Assay was an alamar blue assay.

[2] = tested on: individuals with follicular lymphoma; test: Absolute lymphocyte count / B cell mobilization vs cycle day in individuals with follicular lymphoma; type: in vivo, human
Description: All Patients (except Pt 32009) were treated on schedule of 4 weeks on treatment followed by one week off. Thus, day 1 of each cycle follows one week off drug for these patients.
All Patients were treated on schedule of 4 weeks on treatment followed by one week off. Thus, day 1 of each cycle follows one week off drug for these patients.
All Patients except 38010 were treated on schedule of 4 weeks on treatment followed by one week off. Thus, day 1 of each cycle follows one week off drug for these patients.

C=CC(=O)N1CCC[C@@H](n2nc(-c3ccc(Oc4ccccc4)cc3)c3c(N)ncnc32)C1 [Btk inhibitor, (R)-1-(3-(4-amino-3-(4-phenoxyphenyl)-1H-pyrazolo[3,4-d]pyrimidin-1-yl)piperidin-1-yl)prop-2-en-1-one]
Lymphocyte mobilization (ALC) ([1]; patient with initial PD (32014), FIG. 12): failed to show mobilization
Lymphocyte mobilization (ALC) ([1]; responding patients, FIG. 13): all responding patients showed some degree of mobilization
Lymphocyte mobilization (ALC) (individuals with DLBCL): lack of mobilization for 3 of the 4 patients
Sensitivity of DOHH2 cell line (DoHH2 cells): moderately sensitive
B cell fraction change by cycle ([2]; Patient 32007, Cohort 4, follicular lymphoma grade 3, regressed from SD to CR, FIG. 14): characteristic cyclic increases
Lymphocyte mobilization (ALC) ([2]; follicular lymphoma, PD individuals, FIG. 9): lack of mobilization
Absolute lymphocyte count (ALC) change by cycle ([2]; follicular lymphoma, complete or partial response (CR/PR), 4 weeks on, 1 week off, FIG. 7): increases of ALC during most cycles of most patients
